Source: patent US12544396B2, “Compositions and methods for treating metabolic disease” (VOGENX, priority 2019, dated 2026)

Key:
[1] = orally administered to rat, in comparison with no compound; cited from earlier work
[2] = Oral glucose tolerance test (OGTT) in normal rats: plasma glucose and plasma insulin; type: in vivo; settings: for Plasma glucose 0 hr / Plasma insulin 0 hr / Plasma glucose 0.25 hr / Plasma insulin 0.25 hr / Plasma glucose 0.5 hr / Plasma insulin 0.5 hr / Plasma glucose 1 hr / Plasma insulin 1 hr / Plasma glucose 2 hr / Plasma insulin 2 hr / Plasma glucose 4 hr / Plasma insulin 4 hr / Plasma glucose ΔAUC 0-1 hr / Plasma insulin ΔAUC 0-1 hr: oral, KGT-1681 3 mg/kg, KGA-3235 0.03 mg/kg, Combo 3 and 0.03 mg/kg; for Effect on increase in plasma glucose after glucose loading: FIG. 1A; for Two-way ANOVA main effect in AUC0-1hr for plasma glucose: FIG. 1B; for Effect on plasma insulin: FIG. 2A
Procedure: Example 1. Combination treatment with mizagliflozin and remogliflozin. Combination treatment with KGT-1681 and KGA-3235 in normal rats. KGT-1681 was suspended in 0.1% methylcellulose (MC) and KGA-3235 was dissolved in distilled water (DW). Rats (9 weeks of age) were divided into the following four groups and treated as indicated: vehicle, 0.1% MC+DW; KGT, KGT-1681 (3 mg/kg, 5 mL/kg) plus DW; KGA, 0.1% MC plus KGA-3235 (0.03 mg/kg, 5 mL/kg); and Combo, KGT-1681 plus KGA-3235 (3 and 0.03 mg/kg, respectively). After 16 h fasting, the drug and glucose solution (400 g/L, 5 ml/kg) were orally administered to rats. Blood was obtained in heparinized and aprotinin-treated tubes from a tail vein at each sampling point. Plasma glucose concentration was determined using a Glucose CII-test Wako (Wako Pure Chemicals, Osaka, Japan). Plasma insulin was determined using an enzyme-linked immunosorbent assay kit (Morinaga Institute of Biological Science, Inc., Yokohama, Japan). The area under the curve (AUC)0-1 hr for plasma glucose and insulin were calculated from the plasma glucose and insulin concentrations during the OGTT (Table 1).

[3] = pre-treatment before mixed meal, cited from earlier work

## CCOC(=O)OC[C@H]1O[C@@H](Oc2ccccc2Cc2ccc(OC)cc2)[C@H](O)[C@@H](O)[C@@H]1O [2-(4-methoxybenzyl)phenyl 6-O-ethoxycarbonyl-β-D-glucopyranoside]
[1]
  Increase of lipid accumulative amount in rat liver: inhibited significantly

## Cc1cc(OCCCNCC(C)(C)C(N)=O)ccc1Cc1c(O[C@@H]2O[C@H](CO)[C@@H](O)[C@H](O)[C@H]2O)n[nH]c1C(C)C [KGA-3235, 3-(3-{4-[3-(β-D-glucopyranosyloxy)-5-isopropyl-1H-pyrazol-4-ylmethyl-]-3-methylphenoxy}propylamino)-2,2-dimethylpropionamide]
[2]
  Plasma glucose 0 hr: 92 ± 4 mg/dL
  Plasma insulin 0 hr: 278 ± 25 pg/mL
  Plasma glucose 0.25 hr: 147 ± 7 mg/dL
  Plasma insulin 0.25 hr: 1197 ± 146 pg/mL
  Plasma glucose 0.5 hr: 164 ± 5 mg/dL
  Plasma insulin 0.5 hr: 1014 ± 131 pg/mL
  Plasma glucose 1 hr: 169 ± 5 mg/dL
  Plasma insulin 1 hr: 933 ± 111 pg/mL
  Plasma glucose 2 hr: 136 ± 2 mg/dL
  Plasma insulin 2 hr: 551 ± 98 pg/mL
  Plasma glucose 4 hr: 80 ± 3 mg/dL
  Plasma insulin 4 hr: 286 ± 39 pg/mL
  Effect on increase in plasma glucose after glucose loading: inhibited the increase in plasm glucose
  Two-way ANOVA main effect in AUC0-1hr for plasma glucose: significant main effect
  Effect on plasma insulin: decreased
  Plasma glucose ΔAUC 0-1 hr: 152 ± 4 mg·h/dL
  Plasma insulin ΔAUC 0-1 hr: 948 ± 88 pg·h/mL

## CCOC(=O)OC[C@H]1O[C@@H](Oc2nn(C(C)C)c(C)c2Cc2ccc(OC(C)C)cc2)[C@H](O)[C@@H](O)[C@@H]1O [KGT-1681, 5-methyl-4-[4-(1-methylethoxy)benzyl]-1-(1-methylethyl)-1H-pyrazol-3-yl 6-O-(ethoxycarbonyl)-β-D glucopyranoside]
[2]
  Plasma glucose 0 hr: 101 ± 3 mg/dL
  Plasma insulin 0 hr: 380 ± 29 pg/mL
  Plasma glucose 0.25 hr: 146 ± 5 mg/dL
  Plasma insulin 0.25 hr: 1219 ± 183 pg/mL
  Plasma glucose 0.5 hr: 163 ± 7 mg/dL
  Plasma insulin 0.5 hr: 978 ± 182 pg/mL
  Plasma glucose 1 hr: 168 ± 6 mg/dL
  Plasma insulin 1 hr: 1187 ± 152 pg/mL
  Plasma glucose 2 hr: 113 ± 5 mg/dL
  Plasma insulin 2 hr: 425 ± 40 pg/mL
  Plasma glucose 4 hr: 85 ± 2 mg/dL
  Plasma insulin 4 hr: 338 ± 92 pg/mL
  Effect on increase in plasma glucose after glucose loading: inhibited the increase in plasm glucose
  Two-way ANOVA main effect in AUC0-1hr for plasma glucose: significant main effect
  Effect on plasma insulin: decreased
  Plasma glucose ΔAUC 0-1 hr: 152 ± 5 mg·h/dL
  Plasma insulin ΔAUC 0-1 hr: 1020 ± 148 pg·h/mL

## OC[C@H]1O[C@@H](c2ccc(Cl)c(Cc3ccc(O[C@H]4CCOC4)cc3)c2)[C@H](O)[C@@H](O)[C@@H]1O [empagliflozin]
[3]; versus placebo, p=0.037
  Severity of hypoglycemic events: significantly reduced
[3]
  Nadir glucose values: significantly increased
[3]; placebo 7 of 12 patients
  Events requiring rescue glucose administration: two
